The values that follow come from US8513381B2, “Melanocortin analogs with antimicrobial activity” (Fondazione IRCCS Ca' Granda-Ospedale Maggiore Policlinico, priority 2009, dated 2013).

Values after ≈ are worked out from the molar mass of the structure shown. Non-standard residues stand in square brackets, D forms with d. Residues, ends and D or L forms follow the SMILES beside them. d2Nal = N[C@H](Cc1ccc2ccccc2c1)C(=O)O; Cha = N[C@@H](CC1CCCCC1)C(=O)O; Aic = NC1(C(=O)O)Cc2ccccc2C1

For one assay, the system named is C. glabrata. In kind it is cell-based, Candida glabrata. The method, then: Two Candida albicans isolates were purchased from the ATCC (No. 24433 and 76615). The other yeast isolates were obtained from the collection of Fondazione Ospedale Maggiore Policlinico, Mangiagalli e Regina Elena, Milano. The collection included C. albicans (7 isolates), C. glabrata (3 isolates), and C. krusei (3 isolates). Antifungal susceptibility testing was performed using the broth microdilution method according to the NCCLS M27-A guidelines (National Committee for Clinical Laboratory Standards. 1997, Reference method for broth dilution antifungal susceptibility testing of yeasts and approved standard NCCLS document M27-A. National Committee for Clinical Laboratory Standards, Wayne, Pa.). The organisms were removed from frozen glycerol stock (10% sterile glycerol suspensions stored at −70° C.), subcultured onto Sabouraud's dextrose plates, and incubated at 35° C. After 48 h of incubation, the plates were inspected for purity. To prepare stationary growth phase yeast, a colony was taken from the agar plate and transferred into 5 mL Sabouraud-dextrose broth and incubated for 48 h at 35° C. Cells were centrifuged at 1,000×g for 10 min and the pellet was washed twice with distilled water. Cells were counted and suspended in RPMI 1640 medium buffered to pH 7.0 with 0.165 mol l^−1 morpholinepropanesulphonic acid (MOPS) buffer (Sigma) to obtain the two times test inoculum (1×10^3 to 5×10^3 CFU/mL). Each well of 96 U-shaped well-plates received 100 μl of each antifungal peptides in concentrations from 10^−4 to 7.8×10^−7 M and 100 μl of the two-times inoculum to a final yeast concentration of 0.5×10−[…] cells ml^−1
The MIC90, i.e. the minimum inhibitory concentrations endpoint determined as 90% reduction in turbidity measured using a spectrophotometer (Titertek multiscan at 690 nm wave length).

Assay [1] deals with Pseudomonas aeruginosa ATCC 27853. It is filed as cell-based. The method, then:
(§1) The bacterial strains Pseudomonas aeruginosa ATCC 27853 and Staphylococcus aureus ATCC 29213 were grown in 2% Bacto Peptone water (Difco 1807-17-4) until growth was exponential. A standard microdilution technique with an inoculum of 2×10^6 CFU/mL was used. The minimal inhibitory concentration (MIC) of the peptides was determined in 1% Bacto Peptone water after incubation overnight at 37° C.

The subject of assay [2] is Staphylococcus aureus ATCC 29213. It is filed as cell-based. The method, then: as §1

With `CC(C)[C@H](NC(=O)[C@H](Cc1ccccc1)NC(=O)[C@H](CCCCN)NC(=O)[C@H](CC1CCCCC1)NC(=O)[C@H](Cc1c[nH]c2ccccc12)NC(=O)[C@H](CCCNC(=N)N)NC(=O)[C@@H](Cc1ccc2ccccc2c1)NC(=O)[C@@H](N)Cc1c[nH]cn1)C(N)=O` [MSH0704, H-His-D(2)-Nal-Arg-Trp-Cha-Lys-Phe-Val-NH2] (H-H[d2Nal]RW[Cha]KFV-NH2), the “MIC 90 at 48 hours” value against C. glabrata amounted to 122 µg/mL (≈ 99.9 µM). The “MIC (minimal inhibitory concentration)” value in assay [1] turned out to be 61 µg/mL (≈ 49.9 µM); in assay [2] it was 31 µg/mL (≈ 25.4 µM).

In the case of `CC(C)[C@H](NC(=O)[C@H](Cc1ccccc1)NC(=O)[C@H](CCCCN)NC(=O)C1(NC(=O)[C@H](Cc2c[nH]c3ccccc23)NC(=O)[C@H](CCCNC(=N)N)NC(=O)[C@@H](Cc2ccc3ccccc3c2)NC(=O)[C@@H](N)Cc2c[nH]cn2)Cc2ccccc2C1)C(N)=O` [MSH0708, H-His-D(2)-Nal-Arg-Trp-Aic-Lys-Phe-Val-NH2] (H-H[d2Nal]RW[Aic]KFV-NH2), in the assay with C. glabrata, the “MIC 90 at 48 hours” value was determined as 123 µg/mL (≈ 100 µM). The “MIC (minimal inhibitory concentration)” value in assay [1] worked out at 61 µg/mL (≈ 49.7 µM); in assay [2], 31 µg/mL (≈ 25.3 µM).
